Measurements published in ChEMBL document CHEMBL5724558, “Image-based profiling of drug vulnerabilities in CRC organoids” (2024).
Values joined by “and” are separate entries in the source; they are usually repeats but may differ in a detail not shown here. Equal entries are not always repeated. Square brackets hold non-standard residues; d marks the D form. Peptide text beside a SMILES is read from it. Arg(Me) = CNC(=N)NCCC[C@H](N)C(=O)O; d3Pal = N[C@H](Cc1cccnc1)C(=O)O; azaGly = NNC(=O)O

Legend:
Assay type in all cases: functional, Homo sapiens
Design in all cases: dose or concentration left out as unconfirmed
Colon cancer organoid [1] = assay: (§1) Image-based profiling of donated chemical probes and chemogenomic kinase set in O06 CRC organoid. Image analysis is performed on the sum area metric, and the data were normalized to the DMSO control. After imaging the organoid viability is measured using the OneGloEX Luciferase Assay System. The normalized viability data and sum area are reported.
Colon cancer organoid [2] = assay: as §1, with “O09” for “O06”
Colon cancer organoid [3] = assay: as §1, with “O21” for “O06”

Compound	Cell Viability (Colon cancer organoid [1]; Replication number 1)	Cell Viability (Colon cancer organoid [1]; Replication number 2)	Cell Viability (Colon cancer organoid [2]; Replication number 1)	Cell Viability (Colon cancer organoid [2]; Replication number 2)	Cell Viability (Colon cancer organoid [3]; Replication number 1)	Cell Viability (Colon cancer organoid [3]; Replication number 2)
COc1c(C)cc(NC(=O)c2nn(Cc3ccc(F)cc3)c3c2CN(C(=O)c2ccc[nH]2)C[C@]3(C)C(N)=O)cc1C	208.8% and 152.94%	183.011% and 147.451%	100.506% and 104.328%	74.723% and 85.5242%	89.287% and 106.401%	91.8219% and 96.6587%
CC1=CC(C)=[N+]2C1=C(CCCCc1cn(CC(=O)N3CCc4nc(NC(=O)[C@H]5CCN(C#N)C5)sc4C3)nn1)c1c(C)cc(C)n1[B-]2(F)F	105.892% and 120.972%	115.912% and 117.492%	63.7608% and 86.8451%	67.8399% and 91.9905%	110.953% and 108.585%	96.9264% and 89.225%
CC(=O)c1cc(-c2cc(C(=O)NC3CC3)ccc2C)c2ncccn12	115.093% and 116.94%	131.559% and 119.251%	163.828% and 97.8362%	113.773% and 107.19%	100.074% and 118.158%	94.4985% and 97.1957%
COc1nc2ccc([C@@](O)(c3ccccc3)C3CCN(C(C)=O)CC3)cc2c(Cl)c1Cc1ccc(-n2cccn2)cc1 [JNJ-54119936]	95.4238% and 127.913%	99.5018% and 98.8422%	195.654% and 100.967%	202.641% and 113.341%	91.3508% and 107.676%	118.142% and 99.7424%
CNC(=N)NCCC[C@H](NC(=O)[C@H](CC(C)C)NC(=O)NNC(=O)[C@H](Cc1ccccc1)NC(=O)[C@H](CO)NC(=O)[C@H](CC(N)=O)NC(=O)[C@@H](Cc1cccnc1)NC(=O)[C@H](N)Cc1ccc(O)cc1)C(=O)NCC(N)=O [KISS1-543] (H-[dY][d3Pal]NSF[azaGly]L[Arg(Me)]G-NH2)	118.716% and 117.33%	90.7753% and 88.3624%	107.101% and 81.2318%	83.0393% and 106.024%	119.966% and 118.758%	94.392% and 98.4694%
Cc1ccc2nc(NCCN)c3ncc(C)n3c2c1.O=C(O)C(F)(F)F.O=C(O)C(F)(F)F	119.625% and 106.83%	110.324% and 90.8997%	111% and 93.003%	101.477% and 77.7459%	135.691% and 125.993%	139.56% and 141.634%
CN(C)C(=O)/C(C#N)=C/c1ccc(-c2nc3cnc4[nH]ccc4c3n2C2CCCCC2)o1	174.281% and 154.216%	123.709% and 122.376%	104.012% and 103.69%	101.367% and 106.659%	101.13% and 96.3421%	107.991% and 97.4755%
Cc1cnc(Nc2ccc(F)cc2Cl)nc1-c1c[nH]c(C(=O)N[C@H](CO)c2cccc(Cl)c2)c1	3.326% and 7.634%		6.582% and 13.6138%		28.1046% and 23.9721%	23.785% and 21.0148%
CC1CCN(c2ccnc(NCc3cn(C)cn3)n2)CC1 [TP-040]	114.457% and 102.441%	78.7525% and 90.5361%	164.974% and 118.043%	162.348% and 114.826%	98.573% and 105.41%	113.293% and 110.51%
CNC(=O)c1cc(C(=O)N[C@H]2[C@@H]3COC[C@@H]32)cc2c1O[C@@H](CF)[C@@H]2c1ccccc1 [GSK943]	114.013% and 124.372%	80.0063% and 92.9841%	64.3424% and 103.726%	87.7458% and 93.3783%	93.124% and 115.133%	103.782% and 108.09%
CCN(CC)S(=O)(=O)Nc1cccc(-c2ccc3c(NC(=O)C4CC4)n[nH]c3c2)c1	115.301% and 130.405%	90.7141% and 75.8621%	118.731% and 102.205%	162.059% and 116.31%	106.348% and 90.1082%	91.5896% and 92.3751%
CN([C@@H]1CCc2c(CC(=O)O)c3ccccc3n2C1)S(=O)(=O)c1ccc(F)cc1 [MK-7246]	103.187% and 97.4239%	129.375% and 117.264%	131.189% and 119.936%	71.8556% and 75.9401%	86.5772% and 112.354%	98.7828% and 96.4286%
Cn1c(-c2csc(C3CCN(CC4=NC5N=CC=CC5N4)CC3)n2)nc2ccccc21 (stereo unspecified) [BAY-070]	51.6449% and 96.9231%	54.618% and 76.4056%	60.3085% and 58.8971%	70.2327% and 76.9231%	109.219% and 99.8545%	106.656% and 102.481%
